Values of other authors, collected in article PMC4584145 (Antiviral chemistry & chemotherapy, 2011).

Tests used:
[1] = system: N-HR of HIV-1 gp41; details: ELISA; N-HR containing amino acid positions 18 to 73
[2] = system: 5-helix complex (three N-HRs and two C-HRs)

Row | Substance | binding to the N-HR [1] | interaction with artificial 5-helix complex [2]
1 | C34: representative C-HR-derived peptide that inhibits HIV-1 fusion to host cells | binds strongly | 
2 | Enfuvirtide [T20] | binds weakly | much weaker than that between C34 and the complex
